Key:
Type in all cases: cell-based, human
isolated neutrophils = test: Glutamate biosensor recording of PMA-stimulated glutamate release, glutamate antagonist experiment (FIG. 1E)
Method: Neutrophil preparation from 15 ml of whole blood was achieved by first adding 30 ml PBS under sterile conditions. Half of the PBS/Blood mix was carefully layered on a 15 ml layer of Ficoll-Paque Plus solution in two separate 50 ml falcons using an electronic pipette. The sample was then centrifuged at 1400 rpm at room temp for 30 minutes. 15 ml of sterile blood lysis buffer was added to the pellet centrifuged at 1200 rpm, undergoing 2 lysis cycles. The remaining pellet was washed with sterile PBS, resuspended in 10 ml PBS and the cells were counted. 10 mmol/L of glucose (plasma concentration) was then added in the sample. […]
The sensors were calibrated after every run with stock solutions: 20 μM (in neutrophils) or 40 μM (in blood) of glutamate, <<insert for lactate>> 1 μM (in neutrophils) or 10 μM (in blood) of D-Serine, 10 μM (in neutrophils) or (13.3 μM) of ATP and 0.748 μM adenosine in blood only. To convert changes in the sensor current to changes in the analyte concentrations, the midpoint of the calibration signal at the end of each run and the midpoint of the peak of the net responses (measured from the extrapolated baseline) were used. […]
This experiment was carried out using isolated neutrophils or whole blood from a patient. […] A null sensor measured non-specific release of oxygen reactive species. […]

heparinised whole blood [1] = test: Glutamate biosensor recording of glutamate release in stimulated whole blood
Method: Recordings were carried out in a custom made chamber (1.7 ml maximum volume) and the temperature of the chamber was controlled by a Circulator C-85D. The sensors were connected to a Due-Stat ME200+ potentiostat (Sycopel International Ltd, Jarrow, UK) which was then connected to a Power 1401 interface for processing of the signal. The operating potential for Sarissaprobes was +600 mV and −50 mV for Sarissagold sensors (switched to +600 m V when not operating). The recordings were analysed by Spike2 software.
Blood was collected from patients or from healthy volunteers and stored in heparinised vials (local ethics approved). The samples were kept on ice and were tested within 1 h of collection. […]
Unless stated otherwise, samples of whole blood from human patients were analysed using the Sarissaprobes and Sarissagold glutamate sensors. […]

heparinised whole blood [2] = test: ATP biosensor recording of ATP release in whole blood; settings: 1 ml heparinised whole blood, 37° C.; FIG. 2
Method: (§1) The ATP sensors comprised two enzymes, glycerol kinase and glycerol-3-phosphate Oxidase, the adenosine sensor comprised of three enzymes, adenosine deaminase, nucleoside phosphorylase, and xanthine oxidase while the glutamate sensor contained glutamate oxidase. The D-Serine sensor contained D-amino acid oxidase. The ATP sensor had to be stored in 1M glycerol solution for 30 min to be able to operate.
(§2) 1.5 ml of the prepared sample (whole blood or isolated neutrophils in PBS/glucose) was pipetted into the temperature controlled chamber with a micro-magnetic stirrer for 5 minutes before the sensors were inserted. The sensors were held on a stereotaxic micro-manipulator with the entire sensing tip inserted in the sample, ensuring maximum analyte detection probability. Recordings were done with either all sensors simultaneously or with various combinations according to the sensor availability and aim of the experiment. […] After any detected response signal levelled off, the calibrations were carried out. […]
Samples of whole blood from human patients were analysed using the Sarissagold ATP sensor.
(§3) PMA was added to 1 ml heparinised whole blood maintained at 37° C. […] A null sensor measured non-specific release of oxygen reactive species. […]

heparinised whole blood [3] = test: D-serine biosensor recording of D-serine release in whole blood; settings: 1 ml heparinised whole blood, 37° C.; FIG. 3
Method: as §1, §2
Samples of whole blood from human patients were analysed using the Sarissagold D-Serine sensor.
as §3

heparinised whole blood [4] = test: Acetylcholine biosensor recording of acetylcholine release in whole blood; settings: 1 ml heparinised whole blood, 37° C.; FIG. 4
Method: 1.5 ml of the prepared sample (whole blood or isolated neutrophils in PBS/glucose) was pipetted into the temperature controlled chamber with a micro-magnetic stirrer for 5 minutes before the sensors were inserted. The sensors were held on a stereotaxic micro-manipulator with the entire sensing tip inserted in the sample, ensuring maximum analyte detection probability. Recordings were done with either all sensors simultaneously or with various combinations according to the sensor availability and aim of the experiment. Once a steady-state baseline was achieved, 100 nM of PMA or opsonised E. coli were added to the chamber, avoiding contact with the sensors to limit the noise interference. After any detected response signal levelled off, the calibrations were carried out. A control run was always carried out for each experiment where only PMA/E. coli was applied followed by a calibration. The chamber and the sensors were rinsed with PBS or distilled water before every run.
Samples of whole blood from human patients were analysed using the Sarissagold acetylcholine sensor.
PMA was added to 1 ml heparinised whole blood maintained at 37° C. (as indicated by PMA in FIG. 4). A null sensor measured non-specific release of oxygen reactive species. The accetylcholine sensor detects acetylcholine release in real time. The tips of the sensors were 2 mm under the surface of the blood. […]

| Compound | PMA-stimulated glutamate release in the presence of the antagonist (isolated neutrophils; isolated neutrophils, antagonist 100 μM added 1 minute before PMA) | response recorded using the glutamate sensor after addition of the stimulus (heparinised whole blood [1]; 1 ml heparinised whole blood, 37° C., FIG. 1A/1B) | glutamate release on subsequent stimulation (heparinised whole blood [1]; PMA added 5 minutes after opsonised E. coli, FIG. 1C) | release of glutamate (isolated neutrophils; PMA added to 1 ml heparinised whole blood (so in the source), no antagonist) [μm] | response recorded using the ATP sensor after addition of the stimulus (heparinised whole blood [2]) | response recorded using the D-serine sensor after addition of the stimulus (heparinised whole blood [3]) | response recorded using the acetylcholine sensor after addition of the stimulus (heparinised whole blood [4]) |
| --- | --- | --- | --- | --- | --- | --- | --- |
| Cc1ccc(CC2(O)CCN(CCOc3ccc(O)cc3)CC2)cc1 [CO101244] | failed to increase glutamate release |  |  |  |  |  |  |
| CCCCCCCCCCCCCC(=O)O[C@@H]1[C@@H](C)[C@@]2(O)[C@@H](C=C(CO)C[C@]3(O)C(=O)C(C)=C[C@@H]23)[C@@H]2C(C)(C)[C@]12OC(C)=O [PMA, phorbol myristate acetate] |  | led to an increase in the response | failed to increase glutamate release | ~15 | led to an increase in the response | led to an increase in the response | led to an increase in the response |
